From US6534325B1, “Immunoassay for the detection of amphetamines, methamphetamines and methylenedioxy designer amphetamines” (priority 2000, dated 2003)
Like-named read-outs stand apart in the source and are kept apart here.

Experiments:
[1] = tested on: amphetamine antibody and methamphetamine antibody; conditions: cutoff 1000 ng/ml, currently marketed assay, cited from earlier work
[2] = tested on: amphetamine and methamphetamine monoclonal antibodies (mouse); test: Roche Hitachi AMP/MDMA immunoassay with MDA calibrator, cross-reactivity; conditions: cutoff 300 ng/ml, HITACHI 717 analyzer
[3] = tested on: amphetamine and methamphetamine monoclonal antibodies (mouse); test: Roche Hitachi AMP/MDMA immunoassay (method of the invention, MDMA calibrator), cross-reactivity; conditions: cutoff 300 ng/ml, MDMA calibrator, HITACHI 917 analyzer
[4] = tested on: amphetamine antibody and methamphetamine antibody; conditions: cutoff 500 ng/ml, currently marketed assay, cited from earlier work
[5] = tested on: amphetamine antibody and methamphetamine antibody; conditions: cutoff 1000 ng/ml, currently marketed assay, cited from earlier work; remark: listed apart in the source
[6] = tested on: amphetamine antibody and methamphetamine antibody; conditions: cutoff 500 ng/ml, currently marketed assay, cited from earlier work; remark: listed apart in the source

CC(N)Cc1ccc2c(c1)OCO2 (racemic) [MDA, (±)-3,4-methylenedioxyamphetamine]
Cross-reactivity, CEDIA DAU AMP [1]: 1.9%
Cross-reactivity, Roche Hitachi AMP/MDMA, MDA used as calibrator [2]: 100.0%
Cross-reactivity, Roche Hitachi AMP/MDMA [3]: 25.0%
Cross-reactivity, Roche Hitachi AMP [4]: 35.5%
Cross-reactivity, Abbott TDX AMP/methAMP [5]: 148%
Cross-reactivity, Roche Integra AMPSC [6]: 40%

CC(N)C(O)c1ccccc1 (stereo not drawn) [l-PPA, phenylpropanolamine]
Cross-reactivity, Roche Hitachi AMP/MDMA, MDA used as calibrator [2]: 6.2%
Cross-reactivity, Roche Hitachi AMP/MDMA [3]: 0.6%
Cross-reactivity, Roche Hitachi AMP [4]: 1.5%
Cross-reactivity, Roche Integra AMPSC [6]: 1.1%

CN[C@@H](C)Cc1ccccc1 [d-MAMP, methamphetamine]
Cross-reactivity, CEDIA DAU AMP [1]: 100%
Cross-reactivity, Roche Hitachi AMP/MDMA, MDA used as calibrator [2]: 269.0%
Cross-reactivity, Roche Hitachi AMP/MDMA [3]: 300.0%
Cross-reactivity, Roche Hitachi AMP [4]: 82.2%
Cross-reactivity, Abbott TDX AMP/methAMP [5]: 97.8%
Cross-reactivity, Roche Integra AMPSC [6]: 12%

CNC(C)Cc1ccc2c(c1)OCO2 (racemic) [MDMA, (±)-3,4 methylenedioxymethamphetamine]
Cross-reactivity, CEDIA DAU AMP [1]: 69%
Cross-reactivity, Roche Hitachi AMP/MDMA, MDA used as calibrator [2]: 81.0%
Cross-reactivity, Roche Hitachi AMP/MDMA [3]: 100.0%
Cross-reactivity, Roche Hitachi AMP [4]: 36%
Cross-reactivity, Abbott TDX AMP/methAMP [5]: 97%
Cross-reactivity, Roche Integra AMPSC [6]: 79%

CNC(C)Cc1ccc(O)c(OC)c1 (stereo not drawn) [HMMA, 4-hydroxy-3-methoxymethamphetamine]
Cross-reactivity, Roche Hitachi AMP/MDMA [3]: <0.3%

CN[C@@H](C)Cc1ccccc1 [l-MAMP, methamphetamine]
Cross-reactivity, CEDIA DAU AMP ([1]; listed as 1-MAMP): 12%
Cross-reactivity, Roche Hitachi AMP/MDMA, MDA used as calibrator [2]: 24.7%
Cross-reactivity, Roche Hitachi AMP/MDMA ([3]; listed as 1-MAMP): 18%
Cross-reactivity, Roche Hitachi AMP ([4]; listed as 1-MAMP): 0.8%
Cross-reactivity, Abbott TDX AMP/methAMP ([5]; listed as 1-MAMP): 7.2%
Cross-reactivity, Roche Integra AMPSC [6]: 12%

CC(N)Cc1ccccc1 (stereo not drawn) [l-AMP, amphetamine]
Cross-reactivity, CEDIA DAU AMP ([1]; listed as 1-AMP): 3.0%
Cross-reactivity, Roche Hitachi AMP/MDMA, MDA used as calibrator [2]: 15.2%
Cross-reactivity, Roche Hitachi AMP/MDMA ([3]; listed as 1-AMP): 3.8%
Cross-reactivity, Roche Hitachi AMP ([4]; listed as 1-AMP): 6%
Cross-reactivity, Abbott TDX AMP/methAMP ([5]; listed as 1-AMP): 56.9%
Cross-reactivity, Roche Integra AMPSC ([6]; listed as 1-AMP): 4.2%

CC(N)Cc1ccccc1 (stereo not drawn) [d-AMP, amphetamine]
Cross-reactivity, CEDIA DAU AMP [1]: 101%
Cross-reactivity, Roche Hitachi AMP/MDMA, MDA used as calibrator [2]: 319.0%
Cross-reactivity, Roche Hitachi AMP/MDMA [3]: 97.0%
Cross-reactivity, Roche Hitachi AMP [4]: 100%
Cross-reactivity, Abbott TDX AMP/methAMP [5]: 100%
Cross-reactivity, Roche Integra AMPSC [6]: 100%

CN[C@@H](C)[C@H](O)c1ccccc1 (racemic) [dl-ephedrine, ephedrine]
Cross-reactivity, CEDIA DAU AMP [1]: 0.4%
Cross-reactivity, Roche Hitachi AMP/MDMA, MDA used as calibrator [2]: 0.34%
Cross-reactivity, Roche Hitachi AMP/MDMA [3]: <0.3%
Cross-reactivity, Roche Hitachi AMP [4]: <0.1%
Cross-reactivity, Roche Integra AMPSC [6]: <0.1%

CCC(Cc1ccc2c(c1)OCO2)NC (racemic) [MBDB, (±)-N-methyl-1-(3,4-methylenedioxyphenyl)-2-butanamine]
Cross-reactivity, Roche Hitachi AMP/MDMA [3]: 70.0%

CCC(N)Cc1ccc2c(c1)OCO2 (racemic) [BDB, (±)-(3,4-methylenedioxyphenyl)-2-butanamine]
Cross-reactivity, Roche Hitachi AMP/MDMA [3]: 4.7%
